Where no end group is shown, it is not given here.
Assays:
[1] = system: smooth muscle of the human corpus cavernosum penis; assay: Functional organ bath studies: relaxation of norepinephrine-precontracted strip preparations of human cavernous muscles
Method: Functional organ bath studies:
Strip preparations of human cavernous muscles were fixed in the bath chambers of an organ bath plant (Isolated Organ Apparatus IOA 5306, Föhr Medical Instruments GmbH, Seeheim, Germany) filled with a modified Krebs-Ringer solution (NaCl 120 mM, NaHCO3 25.6 mM, KCl 4.7 mM, CaCl2 2.5 mM, NaH2PO4 1.2 mM, MgCl2 1.2 mM, glucose 22 mM, 2Na^+ (Ca^2+) EDTA 0.1 mM, pH 7.2-7.4). The temperature of the bath solution was controlled to 37° C., and a mixture of […] O2 and 5% CO2 was continuously sparkled through the solution. The application of a passive bias tension of 5 mN (0.5 g) was followed by an equilibration phase of 60 min. Subsequently, the muscle strips were stimulated with 6 μM norepinephrine (NOR). After a stable contraction plateau was reached, the peptides human atrial natriuretic peptide/cardiodilatin (ANP/CDD99-126) (for a survey, see Forssmann et al., 1998) and human C-type natriuretic peptide (CNP) (Ogawa et al., 1992), which are chemically synthesized in our laboratory, were added with cumulative dosage (0.01 to 1000 nM). Changes in the mechanical tension of the muscles were recorded with an analog-digital measured data acquisition system (MacLab®, AD Instruments, Castle Hill, Australia).

[2] = Tests made with male patients: induction of erection; format: in vivo, human; conditions: for erection / time for which the erection was maintained: male patients

C-type natriuretic polypeptide (GLSKGCFGLKLDRIGSMSGLGC) [CNP, ligand of guanylate cyclase B]
concentration from which a significant relaxant effect is seen ([1]; strips precontracted with 6 μM norepinephrine, cumulative dosage 0.01 to 1000 nM): 1 nM
erection ([2]; intracavernous application): immediate erection
time for which the erection was maintained ([2]; intracavernous application): about one
erection ([2]; intravenous application): immediate erection
time for which the erection was maintained ([2]; intravenous application): about one

CCCc1nn(C)c2c(=O)[nH]c(-c3cc(S(=O)(=O)N4CCN(C)CC4)ccc3OCC)nc12 [Sildenafil, reference compound]
necessary dose for the induction of an erection ([2]; combined, simultaneous application of CNP): significantly decreased
side-effects (flickering in the eyes or headaches) ([2]; some subjects, combined application with CNP versus exclusive Sildenafil treatment): reduced, in part to complete disappearance

human atrial natriuretic peptide/cardiodilatin (SLRRSSCFGGRMDRIGAQSGLGCNSFRY; ends and bridges not checked; cysteine pairing not given here) [ANP/CDD99-126, Chemically synthesized peptide, the ligand of guanylate cyclase A, reference compound]
relaxation of precontracted smooth muscle (in words) ([1]; at corresponding concentrations (1 nM to 1 μM), precontracted with 6 μM norepinephrine): no significant relaxation
